Source: patent US20160083357A1, “NOVEL TETRAZOLONE DERIVATIVES” (Hoffmann-La Roche Inc., priority 2013, published 2016)
Like-named read-outs stand apart in the source and are kept apart here. Blank lines part the entries; values can stand above or below the compound they belong to.

What was measured:
[1] = target: T1, human CB1 receptors (Homo sapiens, UniProt P21554); assay: cAMP assay, human CB1; format: cell-based
T1 construct: expressed in transfected cells; host or cells: CHO cells
Description: (§1) CHO cells expressing human CB1 or CB2 receptors are seeded 17-24 hours prior to the experiment 50.000 cells per well in a black 96 well plate with flat clear bottom (Corning Costar #3904) in DMEM (Invitrogen No. 31331), lx HT supplement, with 10% fetal calf serum and incubated at 5% CO2 and 37° C. in a humidified incubator. The growth medium was exchanged with Krebs Ringer Bicarbonate buffer with 1 mM IBMX and incubated at 30° C. for 30 min. Compounds were added to a final assay volume of 100 μl and incubated for 30 min at 30° C. Using the cAMP-Nano-TRF detection kit the assay (Roche Diagnostics) was stopped by the addition of 50 μl lysis reagent (Tris, NaCl, 1.5% Triton X100, 2.5% NP40, 10% NaN3) and 50 μl detection solutions (20 μM mAb Alexa700-cAMP 1:1, and 48 μM Ruthenium-2-AHA-cAMP) and shaken for 2 h at room temperature. The time-resolved energy transfer is measured by a TRF reader (Evotec Technologies GmbH), equipped with a ND:YAG laser as excitation source. The plate is measured twice with the excitation at 355 nm and at the emission with a delay of 100 ns and a gate of 100 ns, total exposure time 10 s at 730 (bandwidth 30 nm) or 645 nm (bandwidth 75 nm), respectively. The FRET signal is calculated as follows: FRET=T730-Alexa730-P(T645-B645) with P=Ru730-B730/Ru645-B645, where T730 is the test well measured at 730 nM, T645 is the test well measured at 645 nm, B730 and B645 are the buffer controls at 730 nm and 645 nm, respectively. cAMP content is determined from the function of a standard curve spanning from 10 μM to 0.13 nM cAMP.
(§2) EC50 values were determined using Activity Base analysis (ID Business Solution, Limited). The EC50 values for a wide range of cannabinoid agonists generated from this assay were in agreement with the values published in the scientific literature.

[2] = target: T2, human CB2 receptors (Homo sapiens, UniProt P34972); assay: cAMP assay, human CB2; format: cell-based
T2 construct: expressed in transfected cells; host or cells: CHO cells
T2 sequence (P34972 whole entry): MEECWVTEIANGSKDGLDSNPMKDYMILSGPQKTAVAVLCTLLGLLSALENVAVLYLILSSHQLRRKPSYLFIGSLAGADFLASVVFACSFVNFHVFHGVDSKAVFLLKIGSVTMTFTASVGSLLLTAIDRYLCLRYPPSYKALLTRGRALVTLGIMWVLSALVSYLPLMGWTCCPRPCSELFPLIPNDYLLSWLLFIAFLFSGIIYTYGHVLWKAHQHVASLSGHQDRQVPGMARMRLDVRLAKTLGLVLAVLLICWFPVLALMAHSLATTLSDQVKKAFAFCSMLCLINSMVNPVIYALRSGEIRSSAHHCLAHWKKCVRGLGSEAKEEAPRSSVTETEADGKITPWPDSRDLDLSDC
Description: as §1, §2

[3] = functional cAMP assay, CHO cells expressing human CB1, read-out: Ec50: CB1 - hu cAMP
[4] = functional cAMP assay, CHO cells expressing human CB2, read-out: Ec50: CB2 - hu cAMP

T1 sequence (P21554 whole entry): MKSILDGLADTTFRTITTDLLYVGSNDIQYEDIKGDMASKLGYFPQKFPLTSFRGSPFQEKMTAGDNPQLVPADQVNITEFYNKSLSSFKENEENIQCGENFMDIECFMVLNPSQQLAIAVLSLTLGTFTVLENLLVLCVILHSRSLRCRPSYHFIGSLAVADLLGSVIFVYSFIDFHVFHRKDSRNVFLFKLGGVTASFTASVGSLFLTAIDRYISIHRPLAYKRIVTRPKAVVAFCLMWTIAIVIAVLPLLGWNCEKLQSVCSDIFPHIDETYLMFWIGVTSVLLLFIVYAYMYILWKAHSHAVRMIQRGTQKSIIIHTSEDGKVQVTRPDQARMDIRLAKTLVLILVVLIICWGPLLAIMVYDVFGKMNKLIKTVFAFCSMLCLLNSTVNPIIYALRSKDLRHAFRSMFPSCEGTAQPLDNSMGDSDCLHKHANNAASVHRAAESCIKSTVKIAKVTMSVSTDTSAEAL

Structure (SMILES): COc1ccc(CCN(C)C(=O)n2nnn(-c3cccc(F)c3)c2=O)cc1OC [Example 1, 4-(3-Fluoro-phenyl)-5-oxo-4,5-dihydro-tetrazole-1-carboxylic acid [2-(3,4-dimethoxy-phenyl)-ethyl]-methyl-amide]
- EC50 [1, 3]: > 10000 nM
- EC50 [2, 4]: 0.6 nM

Structure (SMILES): CN(CCC#N)C(=O)n1nnn(-c2cccc(F)c2)c1=O [Example 2, 4-(3-Fluoro-phenyl)-5-oxo-4,5-dihydro-tetrazole-1-carboxylic acid (2-cyano-ethyl)-methyl-amide]
- EC50 [1, 3]: > 10000 nM
- EC50 [2, 4]: 11.5 nM

Structure (SMILES): NC(=O)C1CCCN(C(=O)n2nnn(-c3cccc(F)c3)c2=O)C1 (stereo not drawn) [Example 3, 1-[4-(3-Fluoro-phenyl)-5-oxo-4,5-dihydro-tetrazole-1-carbonyl]-piperidine-3-carboxylic acid amide]
- EC50 [1, 3]: > 10000 nM
- EC50 [2, 4]: 15.9 nM

Structure (SMILES): CN(CCc1ccccc1)C(=O)n1nnn(-c2cccc(F)c2)c1=O [Example 5, 4-(3-Fluoro-phenyl)-5-oxo-4,5-dihydro-tetrazole-1-carboxylic acid methyl-phenethyl-amide]
- EC50 [1, 3]: > 10000 nM
- EC50 [2, 4]: 0.8 nM

Structure (SMILES): CCN(CCOC)C(=O)n1nnn(-c2cccc(F)c2)c1=O [Example 7, 4-(3-Fluoro-phenyl)-5-oxo-4,5-dihydro-tetrazole-1-carboxylic acid ethyl-(2-methoxy-ethyl)-amide]
- EC50 [1]: > 10000 nM
- EC50 [2]: 2.7 nM

Structure (SMILES): CN(CCCc1ccccc1)C(=O)n1nnn(-c2cccc(F)c2)c1=O [Example 8, 4-(3-Fluoro-phenyl)-5-oxo-4,5-dihydro-tetrazole-1-carboxylic acid methyl-(3-phenyl-propyl)-amide]
- EC50 [1, 3]: > 10000 nM
- EC50 [2, 4]: 1.2 nM

Structure (SMILES): O=C(N1CCc2cc(F)ccc2C1)n1nnn(-c2cccc(F)c2)c1=O [Example 11, 1-(6-Fluoro-3,4-dihydro-1H-isoquinoline-2-carbonyl)-4-(3-fluoro-phenyl)-1,4-dihydro-tetrazol-5-one]
- EC50 [1, 3]: > 10000 nM
- EC50 [2, 4]: 78.9 nM

Structure (SMILES): CCN(Cc1ccccc1)C(=O)n1nnn(-c2cccc(F)c2)c1=O [Example 12, 4-(3-Fluoro-phenyl)-5-oxo-4,5-dihydro-tetrazole-1-carboxylic acid benzyl-ethyl-amide]
- EC50 [1]: > 10000 nM
- EC50 [2]: 0.6 nM

Structure (SMILES): Cn1c(Cn2nnn(-c3cccc(F)c3)c2=O)nnc1S(C)(=O)=O [Example 17, 1-(3-Fluoro-phenyl)-4-(5-methanesulfonyl-4-methyl-4H-[1,2,4]triazol-3-ylmethyl)-1,4-dihydro-tetrazol-5-one]
- EC50 [1, 3]: > 10000 nM
- EC50 [2, 4]: 898 nM

Structure (SMILES): Cn1ccc(C2CCCN2C(=O)n2nnn(-c3cccc(F)c3)c2=O)n1 (stereo not drawn) [Example 19, 1-(3-Fluoro-phenyl)-4-[2-(1-methyl-1H-pyrazol-3-yl)-pyrrolidine-1-carbonyl]-1,4-dihydro-tetrazol-5-one]
- EC50 [1, 3]: > 10000 nM
- EC50 [2, 4]: 25 nM

Structure (SMILES): CC(=O)NC1CCN(C(=O)n2nnn(-c3cccc(F)c3)c2=O)C1 (stereo not drawn) [Example 23, N-{1-[4-(3-Fluoro-phenyl)-5-oxo-4,5-dihydro-tetrazole-1-carbonyl]-pyrrolidin-3-yl}-acetamide]
- EC50 [1, 3]: > 10000 nM
- EC50 [2, 4]: 31.4 nM

Structure (SMILES): O=C(CN1CCN(C(=O)n2nnn(-c3cccc(F)c3)c2=O)CC1)N1CCCC1 [Example 27, 1-(3-Fluoro-phenyl)-4-[4-(2-oxo-2-pyrrolidin-1-yl-ethyl)-piperazine-1-carbonyl]-1,4-dihydro-tetrazol-5-one]
- EC50 [1, 3]: > 10000 nM
- EC50 [2, 4]: 7.1 nM

Structure (SMILES): O=C(N1CCN(c2cnccn2)CC1)n1nnn(-c2cccc(F)c2)c1=O [Example 30, 1-(3-Fluoro-phenyl)-4-(2,3,5,6-tetrahydro-[1,2′]bipyrazinyl-4-carbonyl)-1,4-dihydro-tetrazol-5-one]
- EC50 [1, 3]: > 10000 nM
- EC50 [2, 4]: 205 nM

Continued, values first:

- EC50 [1, 3]: > 10000 nM
- EC50 [2, 4]: 3 nM
Structure (SMILES): O=C(N1CCOCC1)n1nnn(-c2cccc(F)c2)c1=O [Example 4, 1-(3-Fluoro-phenyl)-4-(morpholine-4-carbonyl)-1,4-dihydro-tetrazol-5-one]

- EC50 [1, 3]: > 10000 nM
- EC50 [2, 4]: 0.8 nM
Structure (SMILES): CCN(Cc1ccncc1)C(=O)n1nnn(-c2cccc(F)c2)c1=O [Example 6, 4-(3-Fluoro-phenyl)-5-oxo-4,5-dihydro-tetrazole-1-carboxylic acid ethyl-pyridin-4-ylmethyl-amide]

- EC50 [1, 3]: > 10000 nM
- EC50 [2, 4]: 4.1 nM
Structure (SMILES): O=C(N1CCCC1Cc1ccccc1)n1nnn(-c2cccc(F)c2)c1=O (stereo not drawn) [Example 9, 1-(2-Benzyl-pyrrolidine-1-carbonyl)-4-(3-fluoro-phenyl)-1,4-dihydro-tetrazol-5-one]

- EC50 [1, 3]: > 10000 nM
- EC50 [2, 4]: 5.9 nM
Structure (SMILES): O=C(N1CCCC1c1ccc(F)cc1)n1nnn(-c2cccc(F)c2)c1=O (stereo not drawn) [Example 10, 1-(3-Fluoro-phenyl)-4-[2-(4-fluoro-phenyl)-pyrrolidine-1-carbonyl]-1,4-dihydro-tetrazol-5-one]

- EC50 [1, 3]: > 10000 nM
- EC50 [2, 4]: 11.2 nM
Structure (SMILES): CC[C@H](C)[C@@H](C(=O)OC)N(C)C(=O)n1nnn(-c2cccc(F)c2)c1=O [Example 13, (2S,3S)-2-{[4-(3-Fluoro-phenyl)-5-oxo-4,5-dihydro-tetrazole-1-carbonyl]-methyl-amino}-3-methyl-pentanoic acid methyl ester]

- EC50 [1, 3]: > 10000 nM
- EC50 [2, 4]: 1180 nM
Structure (SMILES): O=c1n(Cc2ccc(F)cc2)nnn1-c1cccc(F)c1 [Example 14, 1-(4-Fluoro-benzyl)-4-(3-fluoro-phenyl)-1,4-dihydro-tetrazol-5-one]

- EC50 [1, 3]: > 10000 nM
- EC50 [2, 4]: 3000 nM
Structure (SMILES): CC(C)(C)OC(=O)N1CCC(n2nnn(-c3cccc(F)c3)c2=O)CC1 [Example 15, 4-[4-(3-Fluoro-phenyl)-5-oxo-4,5-dihydro-tetrazol-1-yl]-piperidine-1-carboxylic acid tert-butyl ester]

- EC50 [1, 3]: > 10000 nM
- EC50 [2, 4]: 327 nM
Structure (SMILES): CCOC(=O)C(C)(C)n1nnn(-c2cccc(F)c2)c1=O [Example 16, 2-[4-(3-Fluoro-phenyl)-5-oxo-4,5-dihydro-tetrazol-1-yl]-2-methyl-propionic acid ethyl ester]

- EC50 [1, 3]: > 10000 nM
- EC50 [2, 4]: 219 nM
Structure (SMILES): Cn1nccc1C1CCCN1C(=O)n1nnn(-c2cccc(F)c2)c1=O (stereo not drawn) [Example 18, 1-(3-Fluoro-phenyl)-4-[2-(2-methyl-2H-pyrazol-3-yl)-pyrrolidine-1-carbonyl]-1,4-dihydro-tetrazol-5-one]

- EC50 [1, 3]: > 10000 nM
- EC50 [2, 4]: 6.9 nM
Structure (SMILES): Cc1cc(C2CCCN2C(=O)n2nnn(-c3cccc(F)c3)c2=O)on1 (stereo not drawn) [Example 20, 1-(3-Fluoro-phenyl)-4-[2-(3-methyl-isoxazol-5-yl)-pyrrolidine-1-carbonyl]-1,4-dihydro-tetrazol-5-one]

- EC50 [1, 3]: > 10000 nM
- EC50 [2, 4]: 97.5 nM
Structure (SMILES): COC[C@@H]1CCCN1C(=O)n1nnn(-c2cccc(F)c2)c1=O [Example 21, 1-(3-Fluoro-phenyl)-4-((S)-2-methoxymethyl-pyrrolidine-1-carbonyl)-1,4-dihydro-tetrazol-5-one]

- EC50 [1, 3]: > 10000 nM
- EC50 [2, 4]: 1920 nM
Structure (SMILES): NC(=O)[C@@H]1CCCN1C(=O)n1nnn(-c2cccc(F)c2)c1=O [Example 22, (S)-1-[4-(3-Fluoro-phenyl)-5-oxo-4,5-dihydro-tetrazole-1-carbonyl]-pyrrolidine-2-carboxylic acid amide]

- EC50 [1, 3]: > 10000 nM
- EC50 [2, 4]: 122 nM
Structure (SMILES): COC(=O)C1CN(C(=O)n2nnn(-c3cccc(F)c3)c2=O)C1 [Example 24, 1-[4-(3-Fluoro-phenyl)-5-oxo-4,5-dihydro-tetrazole-1-carbonyl]-azetidine-3-carboxylic acid methyl ester]

- EC50 [1, 3]: > 10000 nM
- EC50 [2, 4]: 26 nM
Structure (SMILES): Cc1noc(C2CCCN2C(=O)n2nnn(-c3cccc(F)c3)c2=O)n1 (stereo not drawn) [Example 25, 1-(3-Fluoro-phenyl)-4-[2-(3-methyl-[1,2,4]oxadiazol-5-yl)-pyrrolidine-1-carbonyl]-1,4-dihydro-tetrazol-5-one]

- EC50 [1, 3]: > 10000 nM
- EC50 [2, 4]: 17.8 nM
Structure (SMILES): CC(=O)NC1CCN(C(=O)n2nnn(-c3cccc(F)c3)c2=O)CC1 [Example 26, N-{1-[4-(3-Fluoro-phenyl)-5-oxo-4,5-dihydro-tetrazole-1-carbonyl]-piperidin-4-yl}-acetamide]

- EC50 [1, 3]: > 10000 nM
- EC50 [2, 4]: 0.8 nM
Structure (SMILES): CC1(C)CCN(C(=O)n2nnn(-c3cccc(F)c3)c2=O)CC1 [Example 28, 1-(4,4-Dimethyl-piperidine-1-carbonyl)-4-(3-fluoro-phenyl)-1,4-dihydro-tetrazol-5-one]

- EC50 [1, 3]: > 10000 nM
- EC50 [2, 4]: 41.6 nM
Structure (SMILES): O=C(N1CCS(=O)(=O)CC1)n1nnn(-c2cccc(F)c2)c1=O [Example 29, 1-(1,1-Dioxo-1λ6-thiomorpholine-4-carbonyl)-4-(3-fluoro-phenyl)-1,4-dihydro-tetrazol-5-one]
